Measured values: patent US20120244567A1, “HUMAN EMBRYONIC STEM CELLS FOR HIGH THROUGHOUT DRUG SCREENING” (BUCK INSTITUTE FOR RESEARCH ON AGING, priority 2009, published 2012)
Structures can show the parent of a compound that is named as a salt.

Test system: dopaminergic neurons
Description: RNAs isolated from NSCs and neurons with and without drug treatments were hybridized to Illumina HumanRef-8 BeadChip (Illumina, Inc., San Diego, Calif., performed by Microarray core facility at the Burnham Institute for Medical Research). The Illumina array data were normalized by the quantile method, and then transformed log 2 ratio values for a zero mean for expression values of each gene across all samples. The statistical and bioinformatics analyses were conducted by using R and the bioconductor package (www.bioconductor.org). The gene set enrichment analysis was conducted using the GSEA software (www.broad.mit.edu/gsea).
The comparative results are then measured by a non-parametric, running sum statistic termed the enrichment score. The enrichment score significance is assessed by 1,000 permutation tests to compute the enrichment p-value.

[1] = enriched in treated DA neurons, Nom P-Val 0.910714
[2] = enriched in treated DA neurons, Nom P-Val 1
[3] = enriched in untreated DA neurons, NOM p-val 0
[4] = enriched in untreated DA neurons, NOM p-val 0.111111
[5] = enriched in untreated DA neurons, NOM p-val 0.166667
[6] = enriched in untreated DA neurons, NOM p-val 0.444444
[7] = enriched in untreated DA neurons, NOM p-val 0.818182
[8] = enriched in untreated DA neurons, NOM p-val 0.90625
[9] = enriched in untreated DA neurons, NOM p-val 0.955556
[10] = enriched in untreated DA neurons, NOM p-val 1

## CCCCc1oc2ccccc2c1C(=O)c1cc(I)c(OCCN(CC)CC)c(I)c1 [Amiodarone Hydrochloride]
Enriched in treated DA neurons, Nom P-Val 0.864865
  Nes: Transferase Activity Transferring Glycosyl Groups: 0.8297
Enriched in treated DA neurons, Nom P-Val 0.894737
  Nes: Cation Binding: 0.7825
[1]
  Nes: Calmodulin Binding: 0.6917
  Nes: Protein N Terminus Binding: 0.7167
Enriched in treated DA neurons, Nom P-Val 0.913044
  Nes: Guanyl Nucleotide Binding: 0.72
Enriched in treated DA neurons, Nom P-Val 0.924051
  Nes: Hydrolase Activity Acting On Ester Bonds: 0.7747
Enriched in treated DA neurons, Nom P-Val 0.942857
  Nes: Transcription Corepressor Activity: 0.6958
Enriched in treated DA neurons, Nom P-Val 0.944444
  Nes: Atpase Activity Coupled To Transmembrane Movement Of Ions: 0.5935
Enriched in treated DA neurons, Nom P-Val 0.963415
  Nes: Structural Molecule Activity: 0.7324
Enriched in treated DA neurons, Nom P-Val 0.968254
  Nes: Transferase Activity Transferring Alkyl Or Aryl Other Than Methyl Groups: 0.6284
Enriched in treated DA neurons, Nom P-Val 0.983871
  Nes: Actin Filament Binding: 0.3138
Enriched in treated DA neurons, Nom P-Val 0.984375
  Nes: Mrna Binding: 0.4087
Enriched in treated DA neurons, Nom P-Val 0.987013
  Nes: Transcription Factor Binding: 0.742
Enriched in treated DA neurons, Nom P-Val 0.9875
  Nes: Phosphoric Ester Hydrolase Activity: 0.6959
[2]
  Nes: Atpase Activity: 0.6528
  Nes: Rna Binding: 0.4406
  Nes: Translation Initiation Factor Activity: 0.3311
[3]
  NES: Gtpase Binding: −1.62
  NES: Hydrolase Activity Hydrolyzing O Glycosyl Compounds: −1.479
Enriched in untreated DA neurons, NOM p-val 0.02
  NES: Ras Gtpase Binding: −1.585
Enriched in untreated DA neurons, NOM p-val 0.027778
  NES: Cation Channel Activity: −1.394
Enriched in untreated DA neurons, NOM p-val 0.047619
  NES: Small Gtpase Binding: −1.4967
Enriched in untreated DA neurons, NOM p-val 0.051282
  NES: Gated Channel Activity: −1.491
Enriched in untreated DA neurons, NOM p-val 0.060606
  NES: Ion Channel Activity: −1.2
Enriched in untreated DA neurons, NOM p-val 0.08
  NES: Hydrolase Activity Acting On Glycosyl Bonds: −1.414
Enriched in untreated DA neurons, NOM p-val 0.081081
  NES: Nucleobase Nucleoside Nucleotide Kinase Activity: −1.368
Enriched in untreated DA neurons, NOM p-val 0.085714
  NES: Voltage Gated Channel Activity: −1.284
Enriched in untreated DA neurons, NOM p-val 0.1
  NES: Kinase Binding: −1.316
Enriched in untreated DA neurons, NOM p-val 0.105263
  NES: Exopeptidase Activity: −1.3223
[4]
  NES: Metal Ion Transmembrane Transporter Activity: −1.269
  NES: Potassium Channel Activity: −1.325
Enriched in untreated DA neurons, NOM p-val 0.129032
  NES: Substrate Specific Channel Activity: −1.221
Enriched in untreated DA neurons, NOM p-val 0.142857
  NES: Chromatin Binding: −1.239
Enriched in untreated DA neurons, NOM p-val 0.157895
  NES: Gtpase Activator Activity: −1.222
Enriched in untreated DA neurons, NOM p-val 0.162162
  NES: Phosphoprotein Phosphatase Activity: −1.15
[5]
  NES: Electron Carrier Activity: −1.204
  NES: Voltage Gated Cation Channel Activity: −1.174
Enriched in untreated DA neurons, NOM p-val 0.171429
  NES: Transition Metal Ion Binding: −1.098
Enriched in untreated DA neurons, NOM p-val 0.212121
  NES: Protein C Terminus Binding: −1.195
Enriched in untreated DA neurons, NOM p-val 0.216216
  NES: Helicase Activity: −1.187
Enriched in untreated DA neurons, NOM p-val 0.222222
  NES: Protein Complex Binding: −1.133
Enriched in untreated DA neurons, NOM p-val 0.233333
  NES: Enzyme Binding: −1.04
Enriched in untreated DA neurons, NOM p-val 0.243902
  NES: Ras Gtpase Activator Activity: −1.144
Enriched in untreated DA neurons, NOM p-val 0.25
  NES: S Adenosylmethionine Dependent Methyltransferase Activity: −1.2358
Enriched in untreated DA neurons, NOM p-val 0.263158
  NES: Ligand Gated Channel Activity: −1.236
Enriched in untreated DA neurons, NOM p-val 0.291667
  NES: Cation Transmembrane Transporter Activity: −1.08
Enriched in untreated DA neurons, NOM p-val 0.297297
  NES: Rho Gtpase Activator Activity: −1.16
Enriched in untreated DA neurons, NOM p-val 0.318182
  NES: Rna Dependent Atpase Activity: −1.11
Enriched in untreated DA neurons, NOM p-val 0.324324
  NES: Atp Dependent Helicase Activity: −1.133
Enriched in untreated DA neurons, NOM p-val 0.340909
  NES: Methyltransferase Activity: −1.089
Enriched in untreated DA neurons, NOM p-val 0.347826
  NES: Auxiliary Transport Protein Activity: −1.141
Enriched in untreated DA neurons, NOM p-val 0.35
  NES: Transcription Factor Activity: −1.022
Enriched in untreated DA neurons, NOM p-val 0.365854
  NES: Rna Helicase Activity: −1.053
Enriched in untreated DA neurons, NOM p-val 0.367347
  NES: Growth Factor Activity: −1.079
Enriched in untreated DA neurons, NOM p-val 0.387097
  NES: Small Gtpase Regulator Activity: −1.038
Enriched in untreated DA neurons, NOM p-val 0.431818
  NES: Phosphotransferase Activity Phosphate Group As Acceptor: −1.058
Enriched in untreated DA neurons, NOM p-val 0.432432
  NES: Protein Tyrosine Phosphatase Activity: −1.019
[6]
  NES: Peptidase Activity: −0.9811
  NES: Tubulin Binding: −0.9894
Enriched in untreated DA neurons, NOM p-val 0.459459
  NES: Cytokine Binding: −0.9644
Enriched in untreated DA neurons, NOM p-val 0.461538
  NES: Gtpase Regulator Activity: −0.9685
Enriched in untreated DA neurons, NOM p-val 0.464286
  NES: Actin Binding: −1.007
Enriched in untreated DA neurons, NOM p-val 0.466667
  NES: Transferase Activity Transferring One Carbon Groups: −0.9965
Enriched in untreated DA neurons, NOM p-val 0.47619
  NES: Receptor Binding: −0.9865
Enriched in untreated DA neurons, NOM p-val 0.48718
  NES: Protein Serine Threonine Phosphatase Activity: −0.9907
Enriched in untreated DA neurons, NOM p-val 0.5
  NES: Polysaccharide Binding: −0.9231
Enriched in untreated DA neurons, NOM p-val 0.52381
  NES: Atp Dependent Rna Helicase Activity: −1.022
Enriched in untreated DA neurons, NOM p-val 0.542857
  NES: Sh3 Sh2 Adaptor Activity: −0.8755
Enriched in untreated DA neurons, NOM p-val 0.567568
  NES: Pattern Binding: −0.9438
Enriched in untreated DA neurons, NOM p-val 0.571429
  NES: Glycosaminoglycan Binding: −0.9097
Enriched in untreated DA neurons, NOM p-val 0.612903
  NES: Phosphoric Monoester Hydrolase Activity: −0.9735
Enriched in untreated DA neurons, NOM p-val 0.634146
  NES: Hydrolase Activity Acting On Carbon Nitrogen But Not Peptide Bonds: −0.8501
Enriched in untreated DA neurons, NOM p-val 0.636364
  NES: Cofactor Binding: −0.8571
Enriched in untreated DA neurons, NOM p-val 0.657143
  NES: Protein Tyrosine Kinase Activity: −0.8381
Enriched in untreated DA neurons, NOM p-val 0.675676
  NES: Oxidoreductase Activity Go 0016705: −0.8606
Enriched in untreated DA neurons, NOM p-val 0.705882
  NES: Growth Factor Binding: −0.8342
Enriched in untreated DA neurons, NOM p-val 0.707317
  NES: Signal Sequence Binding: −0.8186
Enriched in untreated DA neurons, NOM p-val 0.714286
  NES: Cysteine Type Peptidase Activity: −0.844
Enriched in untreated DA neurons, NOM p-val 0.783784
  NES: Dna Dependent Atpase Activity: −0.8332
[7]
  NES: Cysteine Type Endopeptidase Activity: −0.8093
  NES: Oxidoreductase Activity: −0.9148
Enriched in untreated DA neurons, NOM p-val 0.833333
  NES: Organic Acid Transmembrane Transporter Activity: −0.7234
Enriched in untreated DA neurons, NOM p-val 0.852941
  NES: Lipid Binding: −0.7964
Enriched in untreated DA neurons, NOM p-val 0.875
  NES: Ribonuclease Activity: −0.6173
Enriched in untreated DA neurons, NOM p-val 0.885714
  NES: Protein Kinase Regulator Activity: −0.7344
Enriched in untreated DA neurons, NOM p-val 0.891892
  NES: Rna Splicing Factor Activity Transesterification Mechanism: −0.5675
Enriched in untreated DA neurons, NOM p-val 0.904762
  NES: Specific Rna Polymerase Ii Transcription Factor Activity: −0.6412
[8]
  NES: Isomerase Activity: −0.6048
  NES: Transcription Activator Activity: −0.8411
Enriched in untreated DA neurons, NOM p-val 0.911765
  NES: Kinase Regulator Activity: −0.6989
Enriched in untreated DA neurons, NOM p-val 0.914894
  NES: Phospholipid Binding: −0.6869
Enriched in untreated DA neurons, NOM p-val 0.925926
  NES: Atpase Activity Coupled: −0.7071
Enriched in untreated DA neurons, NOM p-val 0.947368
  NES: Carboxylic Acid Transmembrane Transporter Activity: −0.696
Enriched in untreated DA neurons, NOM p-val 0.953488
  NES: Phosphoinositide Binding: −0.5604
[9]
  NES: Amino Acid Transmembrane Transporter Activity: −0.4938
  NES: Serine Hydrolase Activity: −0.6304
Enriched in untreated DA neurons, NOM p-val 0.969697
  NES: Hormone Receptor Binding: −0.4774
Enriched in untreated DA neurons, NOM p-val 0.971429
  NES: Protein Heterodimerization Activity: −0.7909
Enriched in untreated DA neurons, NOM p-val 0.975
  NES: Oxidoreductase Activity Acting On Nadh Or Nadph: −0.4995
Enriched in untreated DA neurons, NOM p-val 0.97561
  NES: Serine Type Peptidase Activity: −0.6529
[10]
  NES: Amine Transmembrane Transporter Activity: −0.4108
  NES: Nucleotidyltransferase Activity: −0.497
  NES: Structural Constituent Of Ribosome: −0.2676
Enriched in untreated DA neurons, NOM p-val […]
  NES: Serine Type Endopeptidase Activity: −0.6588
